Ki data for 28 compounds are collected here from patent publication US20240246966A1, “NEW PYRAZOLO[1,5-a] PYRIMIDINE DERIVATIVES AS SIGMA LIGANDS” (ACONDICIONAMIENTO TARRASENSE, priority 2021, published 2024).

The structures appear in SMILES notation.

One assay concerns the target T1, Human σ2/TMEM97 receptor (Homo sapiens, UniProt Q5BJF2).
T1 construct: expressed in transfected cells; host or cells: HEK-293
The assay is described as follows: Binding assay to human σ2/TMEM97 receptor ([3H]-DTG, transfected HEK-293 membranes). To be noted: human σ2/TMEM97, [3H]-DTG 10 nM, binding expressed as Ki, read-out: Binding σ-2. Here is the method: Binding Assay to Human ρ2/TMEM97 Receptor
Transfected HEK-293 membranes (15 μg) were incubated with 10 nM [^3H]-1,3-Di-o-tolylguanidine ( DTG) in assay buffer containing Tris-HCl 50 mM at pH 8.0. NSB (non-specific binding) was measured by adding 10 μM haloperidol. The binding of the test compound was measured at either one concentration (% inhibition at 1 or 10 μM) or five different concentrations to determine affinity values (Ki). Plates were incubated at 25° C. for 120 minutes. After the incubation period, the reaction mix was transferred to MultiScreen HTS, FC plates (Millipore), filtered and washed 3 times with ice-cold 10 mM Tris-HCL (pH 8.0). Filters were dried and counted at approximately 40% efficiency in a MicroBeta scintillation counter (Perkin-Elmer) using EcoScint liquid scintillation cocktail.

The target of another assay is T2, Human σ1 Receptor (Homo sapiens, UniProt Q99720).
T2 construct: expressed in transfected cells; host or cells: HEK-293
T2 sequence (Q99720 whole entry): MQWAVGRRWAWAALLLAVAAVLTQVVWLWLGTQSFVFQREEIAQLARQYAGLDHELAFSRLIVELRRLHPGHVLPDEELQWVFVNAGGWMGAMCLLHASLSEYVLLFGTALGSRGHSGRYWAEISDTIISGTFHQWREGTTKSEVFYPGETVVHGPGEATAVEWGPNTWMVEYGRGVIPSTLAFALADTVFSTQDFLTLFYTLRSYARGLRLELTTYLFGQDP
The experiment in a line: Human σ1 receptor radioligand assay ([3H](+)-pentazocine, transfected HEK-293 membranes). Conditions: human σ1, [3H](+)-pentazocine 5 nM, binding expressed as Ki, read-out: Binding σ-1. Here is the method: Human σ1 Receptor Radioligand Assay
Transfected HEK-293 membranes (7 μg) were incubated with 5 nM of [^3H](+)-pentazocine in assay buffer containing Tris-HCl 50 mM at pH 8. NBS (non-specific binding) was measured by adding 10 μM haloperidol. The binding of the test compound was measured at either one concentration (% inhibition at 1 or 10 μM) or five different concentrations to determine affinity values (Ki). Plates were incubated at 37° C. for 120 minutes. After the incubation period, the reaction mix was then transferred to MultiScreen HTS, FC plates (Millipore), filtered and plates were washed 3 times with ice-cold 10 mM Tris-HCL (pH 7.4). Filters were dried and counted at approximately 40% efficiency in a MicroBeta scintillation counter (Perkin-Elmer) using EcoScint liquid scintillation cocktail.

T1 sequence (Q5BJF2 whole entry): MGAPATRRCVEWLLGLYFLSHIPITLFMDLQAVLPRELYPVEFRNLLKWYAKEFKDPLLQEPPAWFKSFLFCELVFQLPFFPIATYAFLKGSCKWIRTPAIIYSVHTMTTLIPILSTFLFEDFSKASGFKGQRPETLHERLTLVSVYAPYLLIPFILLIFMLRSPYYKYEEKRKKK

With `COCC1CCN(Cc2cnc3c(ccn3-c3cccnc3C(F)(F)F)c2)CC1` [Example 44, 5-((4-(Methoxymethyl)piperidin-1-yl)methyl)-1-(2-(trifluoromethyl)pyridin-3-yl)-1H-pyrrolo[2,3-b]pyridine], the Ki at Human σ2/TMEM97 receptor is 0.1 to 0.5 µM; on Human σ1 Receptor it was less than 0.1 µM.

In the case of `FC(F)(F)c1ncccc1-n1ccc2cc(CN3CC4(CCOCC4)C3)cnc21` [Example 56, 2-((1-(2-(Trifluoromethyl)pyridin-3-yl)-1H-pyrrolo[2,3-b]pyridin-5-yl)methyl)-7-oxa-2-azaspiro[3.5]nonane], the Ki at Human σ2/TMEM97 receptor was more than 1 µM; on Human σ1 Receptor it was less than 0.1 µM.

For `FC(F)(F)c1cc(-c2cnn3cc(CN4CCC(c5ccccc5)CC4)cnc23)ccn1` [Example 6, 6-((4-Phenylpiperidin-1-yl)methyl)-3-(2-(trifluoromethyl)pyridin-4-yl)pyrazolo[1,5-a]pyrimidine], the Ki on Human σ2/TMEM97 receptor was 0.1 to 0.5 µM; at Human σ1 Receptor, less than 0.1 µM.

In the case of `Cc1cc(-c2cnn3cc(CN4CCCOCC4)cnc23)ccn1` [Example 24, 4-((3-(2-Methylpyridin-4-yl)pyrazolo[1,5-a]pyrimidin-6-yl)methyl)-1,4-oxazepane], the Ki on Human σ2/TMEM97 receptor is more than 1 µM; on Human σ1 Receptor, 0.1 to 0.5 µM.

As to `FC(F)(F)c1cc(-n2ccc3cc(CN4CCC5(CC4)COC5)cnc32)ccn1` [Example 38, 7-((1-(2-(Trifluoromethyl)pyridin-4-yl)-1H-pyrrolo[2,3-b]pyridin-5-yl)methyl)-2-oxa-7-azaspiro[3.5]nonane], the Ki was 0.1 to 0.5 µM at Human σ2/TMEM97 receptor and less than 0.1 µM at Human σ1 Receptor.

For the compound `Cc1nc2c(-c3ccnc(C(F)(F)F)c3)cnn2c(C)c1CN1CCC2(CC1)COC2` [Example 37, 7-((5,7-Dimethyl-3-(2-(trifluoromethyl)pyridin-4-yl)pyrazolo[1,5-a]pyrimidin-6-yl)methyl)-2-oxa-7-azaspiro[3.5]nonane], the Ki on Human σ2/TMEM97 receptor is 0.5 to 1 µM; at Human σ1 Receptor it was less than 0.1 µM.

Consider `FC(F)(F)c1ccncc1-c1cnn2cc(CN3CCC4(CC3)COC4)cnc12` [Example 17, 7-((3-(4-(Trifluoromethyl)pyridin-3-yl)pyrazolo[1,5-a]pyrimidin-6-yl)methyl)-2-oxa-7-azaspiro[3.5]nonane], for which the Ki is more than 1 µM at Human σ2/TMEM97 receptor and less than 0.1 µM at Human σ1 Receptor.

Take `Fc1cnccc1-c1cnn2cc(CN3CCC4(CCO4)CC3)cnc12` [Example 8, 7-((3-(3-Fluoropyridin-4-yl)pyrazolo[1,5-a]pyrimidin-6-yl)methyl)-1-oxa-7-azaspiro[3.5]nonane]: the Ki is more than 1 µM at Human σ2/TMEM97 receptor and 0.5 to 1 µM on Human σ1 Receptor.

Turning to `FC(F)(F)c1cc(-c2cnn3cc(CN4CCOCC4)cnc23)ccn1` [Example 29, 4-((3-(2-(Trifluoromethyl)pyridin-4-yl)pyrazolo[1,5-a]pyrimidin-6-yl)methyl)morpholine], the Ki on Human σ2/TMEM97 receptor and at Human σ1 Receptor was more than 1 µM each time.

As to `Cc1cc(-c2cnn3cc(CN4CCC5(CCOCC5)CC4)cnc23)ccn1` [Example 26, 9-((3-(2-Methylpyridin-4-yl)pyrazolo[1,5-a]pyrimidin-6-yl)methyl)-3-oxa-9-azaspiro[5.5]undecane], the figures for the Ki on Human σ2/TMEM97 receptor and on Human σ1 Receptor were more than 1 µM and 0.1 to 0.5 µM, respectively.

Take `FC(F)(F)c1cc(-c2cnn3cc(CN4CCC5(CC4)COC5)cnc23)ccn1` [Example 9, 7-((3-(2-(Trifluoromethyl)pyridin-4-yl)pyrazolo[1,5-a]pyrimidin-6-yl)methyl)-2-oxa-7-azaspiro[3.5]nonane]: the Ki at Human σ2/TMEM97 receptor is more than 1 µM; on Human σ1 Receptor it was less than 0.1 µM.

Turning to `COC1CCN(Cc2cnc3c(-c4ccnc(C(F)(F)F)c4)cnn3c2)CC1` [Example 34, 6-((4-Methoxypiperidin-1-yl)methyl)-3-(2-(trifluoromethyl)pyridin-4-yl)pyrazolo[1,5-a]pyrimidine], the Ki at Human σ2/TMEM97 receptor was more than 1 µM; on Human σ1 Receptor it was less than 0.1 µM.

Regarding `Fc1cnccc1-c1cnn2cc(CN3CCCC3)cnc12` [Example 3, 3-(3-Fluoropyridin-4-yl)-6-(pyrrolidin-1-ylmethyl)pyrazolo[1,5-a]pyrimidine], the Ki was more than 1 µM at Human σ2/TMEM97 receptor and less than 0.1 µM at Human σ1 Receptor.

For the compound `COC1CCN(Cc2cnc3c(ccn3-c3ccc(C(F)(F)F)nc3)c2)CC1` [Example 51, 5-((4-Methoxypiperidin-1-yl)methyl)-1-(6-(trifluoromethyl)pyridin-3-yl)-1H-pyrrolo[2,3-b]pyridine], the Ki on Human σ2/TMEM97 receptor was 0.5 to 1 µM; on Human σ1 Receptor, less than 0.1 µM.

On to `FC(F)(F)c1ccc(-c2cnn3cc(CN4CCC5(CC4)COC5)cnc23)cn1` [Example 13, 7-((3-(6-(Trifluoromethyl)pyridin-3-yl)pyrazolo[1,5-a]pyrimidin-6-yl)methyl)-2-oxa-7-azaspiro[3.5]nonane], for which the Ki on Human σ2/TMEM97 receptor is 0.5 to 1 µM; on Human σ1 Receptor it was less than 0.1 µM.

For `CCOCC1CCN(Cc2cnc3c(-c4ccnc(C(F)(F)F)c4)cnn3c2)CC1` [Example 30, 6-((4-(Ethoxymethyl)piperidin-1-yl)methyl)-3-(2-(trifluoromethyl)pyridin-4-yl)pyrazolo[1,5-a]pyrimidine], the Ki was 0.5 to 1 µM at Human σ2/TMEM97 receptor and less than 0.1 µM at Human σ1 Receptor.

Take `FC(F)(F)c1cnccc1-c1cnn2cc(CN3CCC4(CC3)COC4)cnc12` [Example 19, 7-((3-(3-(Trifluoromethyl)pyridin-4-yl)pyrazolo[1,5-a]pyrimidin-6-yl)methyl)-2-oxa-7-azaspiro[3.5]nonane]: the Ki on Human σ2/TMEM97 receptor is more than 1 µM; on Human σ1 Receptor it was less than 0.1 µM.

Consider `c1ccc(C2CCN(Cc3cnc4c(-c5ccncc5)cnn4c3)CC2)cc1` [Example 5, 6-((4-Phenylpiperidin-1-yl)methyl)-3-(pyridin-4-yl)pyrazolo[1,5-a]pyrimidine], for which the values for the Ki at Human σ2/TMEM97 receptor and on Human σ1 Receptor were more than 1 µM and less than 0.1 µM, respectively.

For the compound `CCOCC1CCN(Cc2cnc3c(ccn3-c3ccnc(C(F)(F)F)c3)c2)CC1` [Example 40, 5-((4-(Ethoxymethyl)piperidin-1-yl)methyl)-1-(2-(trifluoromethyl)pyridin-4-yl)-1H-pyrrolo[2,3-b]pyridine], the Ki was 0.1 to 0.5 µM on Human σ2/TMEM97 receptor and less than 0.1 µM on Human σ1 Receptor.

As to `FC(F)(F)c1cc(-c2cnn3cc(CN4CCCC4)cnc23)ccn1` [Example 1, 6-(Pyrrolidin-1-ylmethyl)-3-(2-(trifluoromethyl)pyridin-4-yl)pyrazolo[1,5-a]pyrimidine], the Ki on Human σ2/TMEM97 receptor was more than 1 µM; on Human σ1 Receptor, less than 0.1 µM.

As to `FC(F)(F)c1cc(-n2ccc3cc(CN4CCC5(CCOC5)CC4)cnc32)ccn1` [Example 43, 8-((1-(2-(Trifluoromethyl)pyridin-4-yl)-1H-pyrrolo[2,3-b]pyridin-5-yl)methyl)-2-oxa-8-azaspiro[4.5]decane], the Ki at Human σ2/TMEM97 receptor is 0.1 to 0.5 µM; at Human σ1 Receptor, less than 0.1 µM.

Consider `COCC1CCN(Cc2cnc3c(-c4ccnc(C(F)(F)F)c4)cnn3c2)CC1` [Example 28, 6-((4-(Methoxymethyl)piperidin-1-yl)methyl)-3-(2-(trifluoromethyl)pyridin-4-yl)pyrazolo[1,5-a]pyrimidine], for which the Ki on Human σ2/TMEM97 receptor was 0.5 to 1 µM; on Human σ1 Receptor, less than 0.1 µM.

In the case of `c1cc(-c2cnn3cc(CN4CCCC4)cnc23)ccn1` [Example 2, 3-(Pyridin-4-yl)-6-(pyrrolidin-1-ylmethyl)pyrazolo[1,5-a]pyrimidine], the values for the Ki on Human σ2/TMEM97 receptor and at Human σ1 Receptor were more than 1 µM and 0.1 to 0.5 µM, respectively.

For `OC1CCN(Cc2cnc3c(-c4ccnc(C(F)(F)F)c4)cnn3c2)CC1` [Example 36, 1-((3-(2-(Trifluoromethyl)pyridin-4-yl)pyrazolo[1,5-a]pyrimidin-6-yl)methyl)piperidin-4-ol], the figures for the Ki on Human σ2/TMEM97 receptor and at Human σ1 Receptor were more than 1 µM and less than 0.1 µM, respectively.

Regarding `FC(F)(F)c1cc(-c2cnn3cc(CN4CCC5(CC4)COC5)ccc23)ccn1` [Example 57, 7-((3-(2-(Trifluoromethyl)pyridin-4-yl)pyrazolo[1,5-a]pyridin-6-yl)methyl)-2-oxa-7-azaspiro[3.5]nonane], the Ki at Human σ2/TMEM97 receptor is 0.1 to 0.5 µM; on Human σ1 Receptor, less than 0.1 µM.

Regarding `COCC1CCN(Cc2cnc3c(ccn3-c3ccc(C(F)(F)F)nc3)c2)CC1` [Example 41, 5-((4-(Methoxymethyl)piperidin-1-yl)methyl)-1-(6-(trifluoromethyl)pyridin-3-yl)-1H-pyrrolo[2,3-b]pyridine], the values for the Ki at Human σ2/TMEM97 receptor and at Human σ1 Receptor were 0.1 to 0.5 µM and less than 0.1 µM, respectively.

For the compound `Clc1cc(-c2cnn3cc(CN4CCC5(CC4)COC5)cnc23)ccn1` [Example 16, 7-((3-(2-Chloropyridin-4-yl)pyrazolo[1,5-a]pyrimidin-6-yl)methyl)-2-oxa-7-azaspiro[3.5]nonane], the Ki at Human σ2/TMEM97 receptor was more than 1 µM; at Human σ1 Receptor, less than 0.1 µM.

Consider `FC(F)(F)c1ccc(-n2ccc3cc(CN4CCC5(CC4)COC5)cnc32)cn1` [Example 42, 7-((1-(6-(Trifluoromethyl)pyridin-3-yl)-1H-pyrrolo[2,3-b]pyridin-5-yl)methyl)-2-oxa-7-azaspiro[3.5]nonane], for which the results for the Ki on Human σ2/TMEM97 receptor and at Human σ1 Receptor were 0.1 to 0.5 µM and less than 0.1 µM, respectively.
